One assay addresses memapsin 2 (Homo sapiens, UniProt P56817). Description: Inhibition of memapsin 2 beta-secretase activity toward fluorogenic substrate FS-2. It is filed as biochemical. The following applies: memapsin 2, pH 4, 37° C., 20 minutes pre-incubation, substrate FS-2; read-out: M2Ki. The method, boiled down:
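Memapsin 2 was preincubated with compound 20 min at pH 4, 37 °C, then reacted with fluorogenic substrate FS-2 (MCA-SEVNLDAEFK-DNP), an APP-derived Swedish-variant peptide. Inhibition was followed kinetically by fluorescence.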

The test system of assay [1] is Aβ production in Chinese hamster ovary cells that over-express human APP695 with the London and Swedish mutations. Description: Cellular Aβ IC50 determination (Aβ40 sandwich ELISA). The assay is classed as cell-based. Conditions: Cricetulus griseus; Aβ40 in CHO cells over-expressing human APP695, 24 h incubation. On the procedure: The potency of compounds against memapsin 2 activity was determined in a cellular assay of Aβ production. […] Chinese hamster ovary cells that over-express human APP695 with the London and Swedish mutations were seeded in multi-well plates at 10% confluency. Compounds are dissolved in DMSO to concentrations near 1 mM, and diluted into culture media to a final concentration near 4 μM (final 0.4% DMSO). Compounds were diluted serially and applied to cells in multi-well plates 48 h after seeding. Incubation was continued in 5% CO2 at 37° C. for 24 h. Aliquots were removed and assayed for Aβ40 content using a sandwich ELISA (BioSource International). Amount of Aβ40 over the range of concentration of compounds, relative to control incubations, were fit to a 4-parameter IC50 model.
For orientation: In an ELISA, binding on a coated surface is turned into a signal by an enzyme label.

Chain of memapsin 2 (P56817 46-501): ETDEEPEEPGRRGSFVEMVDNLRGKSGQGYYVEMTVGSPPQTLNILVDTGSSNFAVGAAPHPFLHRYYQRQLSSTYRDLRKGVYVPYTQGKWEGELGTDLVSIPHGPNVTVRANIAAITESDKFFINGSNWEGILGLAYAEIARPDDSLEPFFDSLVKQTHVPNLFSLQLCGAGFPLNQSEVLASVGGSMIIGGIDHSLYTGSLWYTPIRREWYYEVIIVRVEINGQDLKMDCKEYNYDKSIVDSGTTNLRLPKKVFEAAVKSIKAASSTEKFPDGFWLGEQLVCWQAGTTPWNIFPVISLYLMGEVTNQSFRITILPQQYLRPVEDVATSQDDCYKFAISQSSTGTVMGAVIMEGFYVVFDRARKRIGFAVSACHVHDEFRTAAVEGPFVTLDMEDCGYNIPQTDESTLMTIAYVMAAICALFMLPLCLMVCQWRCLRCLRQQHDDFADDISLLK

Usually IC50 stands for the point on the concentration scale where inhibition reaches its midpoint. In the case of `Cc1coc([C@H]2CCCN2C(=O)c2cccc(C(=O)N[C@@H](Cc3ccccc3)[C@H](O)CNCc3cccc(C(F)(F)F)c3)c2)n1` [Compound 35, N-((2S,3R)-3-hydroxy-1-phenyl-4-(3-(trifluoromethyl)benzylamino)butan-2-yl)-3-((R)-2-(4-methyloxazol-2-yl)pyrrolidine-1-carbonyl)benzamide], the Ki on memapsin 2 was less than 100 nM. In addition, in assay [1], the IC50 is less than 300 nM.
On to `Cc1coc([C@H]2CCCN2C(=O)c2cc(CF)cc(C(=O)N[C@@H](Cc3ccccc3)[C@H](O)CNCc3cncc(C(C)(C)F)c3)c2)n1` [Compound 78, 3-(fluoromethyl)-N-((2S,3R)-4-((5-(2-fluoropropan-2-yl)pyridin-3-yl)methylamino)-3-hydroxy-1-phenylbutan-2-yl)-5-((R)-2-(4-methyloxazol-2-yl)pyrrolidine-1-carbonyl)benzamide], for which the Ki at memapsin 2 was less than 100 nM. Besides, the IC50 in assay [1] is less than 300 nM.
On the same counts, the results for `Cc1cc(C(=O)N[C@@H](Cc2ccccc2)[C@H](O)CNCc2cncc(C(C)(C)F)c2)cc(C(=O)N2CCC[C@@H]2c2nc(C)cs2)c1` [Compound 42, N-((2S,3R)-4-((5-(2-fluoropropan-2-yl)pyridin-3-yl)methylamino)-3-hydroxy-1-phenylbutan-2-yl)-3-methyl-5-((R)-2-(4-methylthiazol-2-yl)pyrrolidine-1-carbonyl)benzamide] are less than 100 nM and less than 300 nM.
For `Cc1cc(C(=O)N[C@@H](Cc2ccccc2)[C@H](O)CNCc2cccc(C(C)(F)F)c2)cc(C(=O)N2CCC[C@@H]2c2nc(C)co2)c1` [Compound 104, N-((2S,3R)-4-(3-(1,1-difluoroethyl)benzylamino)-3-hydroxy-1-phenylbutan-2-yl)-3-methyl-5-((R)-2-(4-methyloxazol-2-yl)pyrrolidine-1-carbonyl)benzamide], in that order: less than 100 nM and less than 300 nM.
As to `Cc1coc([C@H]2CCCN2C(=O)c2cncc(C(=O)N[C@@H](Cc3ccccc3)[C@H](O)CNCc3cncc(C(C)C)c3)c2)n1` [Compound 71, N-((2S,3R)-3-hydroxy-4-((5-isopropylpyridin-3-yl)methylamino)-1-phenylbutan-2-yl)-5-((R)-2-(4-methyloxazol-2-yl)pyrrolidine-1-carbonyl)nicotinamide], at memapsin 2, the Ki is less than 100 nM. Further, the 50% inhibitory concentration (IC50) in assay [1] is less than 300 nM.
With `Cc1csc([C@H]2CCCN2C(=O)c2cc(C(=O)N[C@@H](Cc3ccccc3)[C@H](O)CNCc3cccc(C(C)(C)C)c3)cc(N(C)C)c2)n1` [Compound 41, N-((2S,3R)-4-(3-tert-butylbenzylamino)-3-hydroxy-1-phenylbutan-2-yl)-3-(dimethylamino)-5-((R)-2-(4-methylthiazol-2-yl)pyrrolidine-1-carbonyl)benzamide], the Ki at memapsin 2 is less than 100 nM. In assay [1], the IC50 is less than 300 nM.
As for `Cc1csc([C@H]2CCCN2C(=O)c2cncc(C(=O)N[C@@H](Cc3ccccc3)[C@H](O)CNCc3cccc(C(C)(C)C)c3)c2)n1` [Compound 32, N-((2S,3R)-4-(3-tert-butylbenzylamino)-3-hydroxy-1-phenylbutan-2-yl)-5-((R)-2-(4-methylthiazol-2-yl)pyrrolidine-1-carbonyl)nicotinamide], the Ki on memapsin 2 lay in the range of 101 to 200 nM. The half-maximal inhibitory concentration (IC50) in assay [1] is less than 300 nM.
For the compound `Cc1coc([C@H]2CCCN2C(=O)c2cncc(C(=O)N[C@@H](Cc3ccccc3)[C@H](O)CNCc3cccc(C(C)(C)C)c3)c2)n1` [Compound 76, N-((2S,3R)-4-(3-tert-butylbenzylamino)-3-hydroxy-1-phenylbutan-2-yl)-5-((R)-2-(4-methyloxazol-2-yl)pyrrolidine-1-carbonyl)nicotinamide], the Ki on memapsin 2 was less than 100 nM. Besides, the IC50 in assay [1] was less than 300 nM.
Take `Cc1csc([C@H]2CCCN2C(=O)c2cc(C(=O)N[C@@H](Cc3ccccc3)[C@H](O)CNCc3cncc(C(C)(C)F)c3)cc(-c3ncco3)c2)n1` [Compound 38, N-((2S,3R)-4-((5-(2-fluoropropan-2-yl)pyridin-3-yl)methylamino)-3-hydroxy-1-phenylbutan-2-yl)-3-((R)-2-(4-methylthiazol-2-yl)pyrrolidine-1-carbonyl)-5-(oxazol-2-yl)benzamide]: the Ki on memapsin 2 is less than 100 nM. The compound also gave an IC50 in assay [1] of less than 300 nM.
On the same counts, the results for `Cc1csc([C@H]2CCCN2C(=O)c2cc(C(=O)N[C@@H](Cc3ccccc3)[C@H](O)CNCc3cccc(Cl)c3)cc(N(C)C)c2)n1` [Compound 47, N-((2S,3R)-4-(3-chlorobenzylamino)-3-hydroxy-1-phenylbutan-2-yl)-3-(dimethylamino)-5-((R)-2-(4-methylthiazol-2-yl)pyrrolidine-1-carbonyl)benzamide] are less than 100 nM and less than 300 nM.
On the same counts, the results for `Cc1csc([C@H]2CCCN2C(=O)c2cncc(C(=O)N[C@@H](Cc3ccccc3)[C@H](O)CNCc3cccc(C(F)(F)F)c3)c2)n1` [Compound 31, N-((2S,3R)-3-hydroxy-1-phenyl-4-(3-(trifluoromethyl)benzylamino)butan-2-yl)-5-((R)-2-(4-methylthiazol-2-yl)pyrrolidine-1-carbonyl)nicotinamide] are less than 100 nM and less than 300 nM.
On the same counts, the results for `COc1cc(C(=O)N[C@@H](Cc2ccccc2)[C@H](O)CNCc2cncc(C(C)C)c2)cc(C(=O)N2CCC[C@@H]2c2nc(C)co2)c1` [Compound 89, N-((2S,3R)-3-hydroxy-4-((5-isopropylpyridin-3-yl)methylamino)-1-phenylbutan-2-yl)-3-methoxy-5-((R)-2-(4-methyloxazol-2-yl)pyrrolidine-1-carbonyl)benzamide] are less than 100 nM and less than 300 nM.
As to `Cc1csc([C@H]2CCCN2C(=O)c2cc(C(=O)N[C@@H](Cc3ccccc3)[C@H](O)CNCc3cncc(C(C)(F)F)c3)cc(N(C)C)c2)n1` [Compound 40, N-((2S,3R)-4-((5-(1,1-difluoroethyl)pyridin-3-yl)methylamino)-3-hydroxy-1-phenylbutan-2-yl)-3-(dimethylamino)-5-((R)-2-(4-methylthiazol-2-yl)pyrrolidine-1-carbonyl)benzamide], at memapsin 2, the Ki is less than 100 nM. In assay [1], this compound had a half-inhibitory concentration (IC50) of less than 300 nM.
For `Cc1coc([C@H]2CCCN2C(=O)c2cccc(C(=O)N[C@@H](Cc3ccccc3)[C@H](O)CNCc3cncc(C(C)C)c3)c2)n1` [Compound 34, N-((2S,3R)-3-hydroxy-4-((5-isopropylpyridin-3-yl)methylamino)-1-phenylbutan-2-yl)-3-((R)-2-(4-methyloxazol-2-yl)pyrrolidine-1-carbonyl)benzamide], in that order: less than 100 nM and less than 300 nM.
As for `Cc1csc([C@H]2CCCN2C(=O)c2cc(C(=O)N[C@@H](Cc3ccccc3)[C@H](O)CNCc3cc(Cl)cc(Cl)c3)cc(N(C)C)c2)n1` [Compound 48, N-((2S,3R)-4-(3,5-dichlorobenzylamino)-3-hydroxy-1-phenylbutan-2-yl)-3-(dimethylamino)-5-((R)-2-(4-methylthiazol-2-yl)pyrrolidine-1-carbonyl)benzamide], the Ki at memapsin 2 is less than 100 nM. Besides, the IC50 in assay [1] was less than 300 nM.
Turning to `Cc1csc([C@H]2CCCN2C(=O)c2cc(C(=O)N[C@@H](Cc3ccccc3)[C@H](O)CNCc3cncc(C(C)C)c3)cc(-c3ncco3)c2)n1` [Compound 25, N-((2S,3R)-3-hydroxy-4-((5-isopropylpyridin-3-yl)methylamino)-1-phenylbutan-2-yl)-3-((R)-2-(4-methylthiazol-2-yl)pyrrolidine-1-carbonyl)-5-(oxazol-2-yl)benzamide], the Ki at memapsin 2 was less than 100 nM. The compound further had an IC50 in assay [1] of less than 300 nM.

Values taken from patent publication US8299267B2, “(3-hydroxy-4-amino-butan-2-yl) -3- (2-thiazol-2-yl-pyrrolidine-1-carbonyl) benzamide derivatives and related compounds as beta-secretase inhibitors for treating” (CoMentis, Inc., priority 2007, dated 2012).
